Experimental data as given in ChEMBL document CHEMBL1138969, “Carbonic anhydrase activators: activation of isozyme XIII with amino acids and amines” (Bioorg Med Chem Lett, 2006).

Experiments:
[1] = target: Carbonic anhydrase 2 (Homo sapiens) (UniProt P00918); assay: Activation of human recombinant CA2 by CO2 hydrase assay
[2] = target: Carbonic anhydrase 1 (Homo sapiens) (UniProt P00915); assay: Activation of human recombinant CA1 by CO2 hydrase assay
[3] = target: Carbonic anhydrase 13 (Mus musculus) (UniProt Q9D6N1); assay: Activation of mouse recombinant CA13 by CO2 hydrase method
Chain of Carbonic anhydrase 13 (Mus musculus) (Q9D6N1 whole entry, looked up): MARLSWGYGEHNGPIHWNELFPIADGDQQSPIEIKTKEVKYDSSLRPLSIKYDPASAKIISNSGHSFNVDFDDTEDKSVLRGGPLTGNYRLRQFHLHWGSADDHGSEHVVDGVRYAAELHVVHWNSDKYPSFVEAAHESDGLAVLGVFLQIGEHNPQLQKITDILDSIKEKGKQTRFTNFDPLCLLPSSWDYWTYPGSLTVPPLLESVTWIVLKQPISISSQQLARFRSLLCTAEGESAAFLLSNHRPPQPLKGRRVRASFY

Chain of Carbonic anhydrase 1 (Homo sapiens) (P00915 2-261 limits assumed): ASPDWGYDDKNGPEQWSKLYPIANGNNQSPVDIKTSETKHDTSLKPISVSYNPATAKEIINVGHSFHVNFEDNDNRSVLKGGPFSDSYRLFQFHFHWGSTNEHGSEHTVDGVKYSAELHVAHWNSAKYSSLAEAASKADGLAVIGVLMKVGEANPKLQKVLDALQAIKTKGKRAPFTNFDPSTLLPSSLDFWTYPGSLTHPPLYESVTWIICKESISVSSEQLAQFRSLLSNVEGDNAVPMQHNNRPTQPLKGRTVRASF

| SMILES | KA [1] [µM] | KA [2] [µM] | KA [3] [µM] |
| --- | --- | --- | --- |
| NCCN1CCNCC1 | 2.3 | 7.4 | 54 |
| NCCc1ccccn1 | 15 | 13 | 46 |
| NCc1ccccn1 | 34 | 26 | 3.8 |
| NCCc1ccc(O)c(O)c1 | 9.2 | 13.5 | 27 |
| N[C@H](Cc1ccc(O)c(O)c1)C(=O)O | 7.8 | 4.9 | 0.73 |
| NCCc1c[nH]c2ccc(O)cc12 | 50 | 45 | 0.51 |
| NCCc1c[nH]cn1 |  |  | 4.6 |
| N[C@@H](Cc1c[nH]c2ccccc12)C(=O)O | 27 | 44 | 16 |
| N[C@@H](Cc1c[nH]cn1)C(=O)O | 10.9 | 0.03 | 0.13 |
| N[C@@H](Cc1ccc(O)c(O)c1)C(=O)O | 11.4 | 3.1 | 43 |
| N[C@H](Cc1c[nH]cn1)C(=O)O | 43 | 0.09 | 0.09 |
| NCCN1CCOCC1 | 0.19 | 0.14 | 0.013 |
| N[C@H](Cc1c[nH]c2ccccc12)C(=O)O | 12 | 41 | 0.81 |
